In patent US9481670B2, “Triazine compounds” (Sphaera Pharma PTE. Ltd., priority 2011, dated 2016):

Target: T1, PI3K alpha (Homo sapiens, UniProt P42336)
T1 construct: purchased Millipore Upstate
Experiment: P110 Alpha TR-FRET Assay (PI3K alpha kinase assay, HTRF Transcreener ADP Assay)
Type: biochemical
Conditions: PI3K (WT)
Method in brief: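 HTRF Transcreener ADP read-out of ADP formed by PI3K (50 ng enzyme) in 50 mM HEPES pH 7.5, 5 mM MgCl2, 1 mM DTT, 30 μM Na3VO4. Compound preincubated with enzyme 20 min; reaction started with 10 μM ATP and 5 μM PIP2, run 20 min, then ADP-d2/anti-ADP cryptate detection for 1 h.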

T1 sequence (P42336 whole entry): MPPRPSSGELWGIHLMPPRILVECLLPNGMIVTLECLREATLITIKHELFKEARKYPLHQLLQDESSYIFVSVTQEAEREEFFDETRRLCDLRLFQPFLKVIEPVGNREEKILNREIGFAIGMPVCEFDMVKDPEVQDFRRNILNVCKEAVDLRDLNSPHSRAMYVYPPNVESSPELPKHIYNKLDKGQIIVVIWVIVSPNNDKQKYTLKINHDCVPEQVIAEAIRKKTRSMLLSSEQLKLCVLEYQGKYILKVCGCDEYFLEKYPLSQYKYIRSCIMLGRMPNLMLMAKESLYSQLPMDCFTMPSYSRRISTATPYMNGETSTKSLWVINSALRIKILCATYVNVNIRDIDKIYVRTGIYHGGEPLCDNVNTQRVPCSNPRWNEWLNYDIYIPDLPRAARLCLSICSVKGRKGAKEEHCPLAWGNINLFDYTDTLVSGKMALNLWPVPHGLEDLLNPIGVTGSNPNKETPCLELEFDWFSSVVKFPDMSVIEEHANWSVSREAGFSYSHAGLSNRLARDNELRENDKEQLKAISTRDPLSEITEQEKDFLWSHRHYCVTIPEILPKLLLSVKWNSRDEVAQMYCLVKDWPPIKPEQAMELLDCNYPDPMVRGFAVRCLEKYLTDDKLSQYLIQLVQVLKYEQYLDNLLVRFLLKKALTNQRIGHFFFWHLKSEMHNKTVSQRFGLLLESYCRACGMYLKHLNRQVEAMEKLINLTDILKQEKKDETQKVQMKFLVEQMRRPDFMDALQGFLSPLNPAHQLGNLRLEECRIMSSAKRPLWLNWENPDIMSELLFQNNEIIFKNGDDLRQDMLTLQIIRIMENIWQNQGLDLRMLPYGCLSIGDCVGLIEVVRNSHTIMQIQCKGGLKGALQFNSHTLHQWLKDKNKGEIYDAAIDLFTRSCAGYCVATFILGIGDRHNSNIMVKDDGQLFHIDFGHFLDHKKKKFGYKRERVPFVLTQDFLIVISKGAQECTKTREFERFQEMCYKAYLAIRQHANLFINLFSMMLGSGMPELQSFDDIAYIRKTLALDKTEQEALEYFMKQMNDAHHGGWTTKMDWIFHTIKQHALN
T1 sequence (P27986 whole entry partner): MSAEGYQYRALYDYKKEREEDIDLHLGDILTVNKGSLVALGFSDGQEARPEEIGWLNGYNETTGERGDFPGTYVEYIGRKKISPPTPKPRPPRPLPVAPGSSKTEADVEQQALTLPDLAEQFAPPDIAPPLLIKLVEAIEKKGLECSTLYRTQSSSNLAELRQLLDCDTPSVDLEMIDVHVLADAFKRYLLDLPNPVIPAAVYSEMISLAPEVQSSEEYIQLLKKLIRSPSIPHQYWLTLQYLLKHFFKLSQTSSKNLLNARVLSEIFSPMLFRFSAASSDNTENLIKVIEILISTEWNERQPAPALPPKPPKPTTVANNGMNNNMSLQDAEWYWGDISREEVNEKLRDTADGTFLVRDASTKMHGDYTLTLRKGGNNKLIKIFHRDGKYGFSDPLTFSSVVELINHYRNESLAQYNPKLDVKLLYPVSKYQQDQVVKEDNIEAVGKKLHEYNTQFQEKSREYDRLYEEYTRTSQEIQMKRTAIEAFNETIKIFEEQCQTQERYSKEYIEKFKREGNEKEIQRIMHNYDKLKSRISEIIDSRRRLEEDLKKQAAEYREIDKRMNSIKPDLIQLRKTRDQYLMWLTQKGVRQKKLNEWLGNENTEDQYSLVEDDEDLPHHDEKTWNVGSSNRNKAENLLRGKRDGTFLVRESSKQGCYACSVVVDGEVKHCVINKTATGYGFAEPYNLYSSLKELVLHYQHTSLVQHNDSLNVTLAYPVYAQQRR

| Compound | IC50 [µM] |
| --- | --- |
| COc1ccc(F)c(-c2nc(NCC(=O)O)nc(N3CCOCC3)n2)c1 [Compound 1156, 2-((4-(2-fluoro-5-methoxyphenyl)-6-morpholino-1,3,5-triazin-2-yl)amino)acetic acid] | > 5 |
| Nc1cccc(-c2nc(NCC(=O)O)nc(N3CCOCC3)n2)c1 [Compound 1199, 2-((4-(3-aminophenyl)-6-morpholino-1,3,5-triazin-2-yl)amino)acetic acid] | > 5 |
| O=C(O)CNc1nc(-c2cccc3c2CCC3=O)nc(N2CCOCC2)n1 [Compound 1078, 2-((4-morpholino-6-(1-oxo-2,3-dihydro-1H-inden-4-yl)-1,3,5-triazin-2-yl)amino)acetic acid] | > 5 |
| CNC(=O)C(=O)N[C@H]1CC[C@H](Oc2nc(-c3cccc4[nH]ncc34)nc(N3CCOCC3)n2)CC1 [Compound 1124, N-methyl-N′-[(1r,4r)-4-9-{[4-1-(1H-indazol-4-yl)-6-5-(morpholin-4-yl)-1,3,5-triazin-2-yl]oxy}cyclohexyl]ethanediamide] | < 5 |
| COc1cccc(-c2nc(NCC(=O)O)nc(N3CCOCC3)n2)c1 [Compound 1183, 2-((4-(3-methoxyphenyl)-6-morpholino-1,3,5-triazin-2-yl)amino)acetic acid] | > 5 |
| CN(C)Cc1ccc(Oc2nc(-c3cccc4[nH]ncc34)nc(N3CCOCC3)n2)cc1 [Compound 1119, 1-(4-((4-(1H-indazol-4-yl)-6-morpholino-1,3,5-triazin-2-yl)oxy)phenyl)-N,N-dimethylmethanamine] | < 5 |
| CN(C)C(=O)c1cccc(Nc2nc(-c3ccc(N)nc3)nc(N3CCOCC3)n2)c1 [Compound 1060, 3-((4-(6-aminopyridin-3-yl)-6-morpholino-1,3,5-triazin-2-yl)amino)-N,N-dimethylbenzamide] | < 5 |
| CS(=O)(=O)N1CCN(C(=O)c2cccc(Nc3nc(-c4cccc5[nH]ncc45)nc(N4CCOCC4)n3)c2)CC1 [Compound 1130, (3-((4-(1H-indazol-4-yl)-6-morpholino-1,3,5-triazin-2-yl)amino)phenyl)(4-(methylsulfonyl)piperazin-1-yl)methanone] | < 5 |
| O=C(c1cccc(Nc2nc(-c3cccc4[nH]ncc34)nc(N3CCOCC3)n2)c1)N1CCOCC1 [Compound 1173, (3-((4-(1H-indazol-4-yl)-6-morpholino-1,3,5-triazin-2-yl)amino)phenyl)(morpholino)methanone] | < 5 |
| CN(C)C(=O)c1ccc(Oc2nc(-c3ccnc4[nH]ccc34)nc(N3CCOCC3)n2)cc1 [Compound 1058, N,N-dimethyl-4-14-{[4-5-(morpholin-4-yl)-6-1-{1H-pyrrolo[2,3-b]pyridin-4-yl}-1,3,5-triazin-2-yl]oxy}benzamide] | < 5 |
| CC1COCC(C)N1c1nc(Oc2ccc(C(=O)N(C)C)cc2)nc(-c2cccc3[nH]ncc23)n1 (stereo not drawn) [Compound 1097, 4-9-{[4-5-(3-28,5-32-dimethylmorpholin-4-yl)-6-1-(1H-indazol-4-yl)-1,3,5-triazin-2-yl]oxy}-N,N-dimethylbenzamide] | < 5 |
| CN(C)C(=O)N1CCN(Cc2nc(-c3ccc(N)nc3)nc(N3CCOCC3)n2)CC1 [Compound 1049, 4-((4-(6-aminopyridin-3-yl)-6-morpholino-1,3,5-triazin-2-yl)methyl)-N,N-dimethylpiperazine-1-carboxamide] | < 5 |
| COC1CCN(C(=O)c2cccc(Nc3nc(-c4cccc5[nH]ncc45)nc(N4CCOCC4)n3)c2)CC1 [Compound 1140, (3-((4-(1H-indazol-4-yl)-6-morpholino-1,3,5-triazin-2-yl)amino)phenyl)(4-methoxypiperidin-1-yl)methanone] | < 5 |
| CN(C)C(=O)c1ccc(Oc2nc(-c3ccc(N)nc3)nc(N3C4CCC3COC4)n2)cc1 [Compound 1012, 4-9-{[4-1-(6-12-aminopyridin-3-yl)-6-5-{3-oxa-8-azabicyclo[3.2.1]octan-8-yl}-1,3,5-triazin-2-yl]oxy}-N,N-dimethylbenzamide] | < 5 |
| CN(C)C(=O)c1ccc(Oc2nc(-c3cccc4[nH]ncc34)nc(N3CC(C(N)=O)C3)n2)cc1 [Compound 1047, 1-7-{4-1-[4-11-(dimethylcarbamoyl)phenoxy]-6-5-(1H-indazol-4-yl)-1,3,5-triazin-2-yl}azetidine-3-carboxamide] | > 5 |
| N[C@H]1CC[C@H](Oc2nc(-c3cccc4[nH]ncc34)nc(N3CCOCC3)n2)CC1 [Compound 1152, (1r,4r)-4-9-{[4-1-(1H-indazol-4-yl)-6-5-(morpholin-4-yl)-1,3,5-triazin-2-yl]oxy}cyclohexan-1-amine] | < 5 |
| CS(=O)(=O)N1CCN(C(=O)CNc2nc(-c3cccc(O)c3)nc(N3CCOCC3)n2)CC1 [Compound 1089, 2-((4-(3-hydroxyphenyl)-6-morpholino-1,3,5-triazin-2-yl)amino)-1-(4-(methylsulfonyl)piperazin-1-yl)ethanone] | < 5 |
| CN(C)C(=O)c1cccc(Oc2nc(-c3cccc4[nH]ncc34)nc(N3CCOCC3)n2)c1 [Compound 1088, 3-22-{[4-1-(1H-indazol-4-yl)-6-5-(morpholin-4-yl)-1,3,5-triazin-2-yl]oxy}-N,N-dimethylbenzamide] | < 5 |
| CN(C)C(=O)c1ccc(Oc2nc(-c3cccc4[nH]ncc34)nc(N3CCCOCC3)n2)cc1 [Compound 1073, 4-7-{[4-5-(1H-indazol-4-yl)-6-3-(1,4-oxazepan-4-yl)-1,3,5-triazin-2-yl]oxy}-N,N-dimethylbenzamide] | < 5 |
| CN(C)C(=O)c1ccc(Oc2nc(-c3ccc(N)nc3)nc(N3CCOCC3)n2)cc1 [Compound 1027, 4-14-{[4-1-(6-17-aminopyridin-3-yl)-6-5-(morpholin-4-yl)-1,3,5-triazin-2-yl]oxy}-N,N-dimethylbenzamide] | < 5 |
| Nc1nc(-c2ccccc2)nc(N2CCOCC2)n1 [Compound 1162, 4-0-(morpholin-4-yl)-6-4-phenyl-1,3,5-triazin-2-amine] | > 5 |
| O=C1CCc2ccc(Oc3nc(-c4cccc5[nH]ncc45)nc(N4CCOCC4)n3)cc2N1 [Compound 1054, 7-14-{[4-1-(1H-indazol-4-yl)-6-5-(morpholin-4-yl)-1,3,5-triazin-2-yl]oxy}-1,2,3,4-tetrahydroquinolin-2-one] | < 5 |
| CN(C)C(=O)CNc1nc(-c2ccc(O)nc2)nc(N2CCOCC2)n1 [Compound 1145, 2-((4-(6-hydroxypyridin-3-yl)-6-morpholino-1,3,5-triazin-2-yl)amino)-N,N-dimethylacetamide] | < 5 |

Second part, the compound after the results:

| IC50 [µM] | Compound |
| --- | --- |
| < 5 | CS(=O)(=O)N[C@H]1CCC[C@H](Oc2nc(-c3cccc4c3cnn4S(C)(=O)=O)nc(N3CCOCC3)n2)C1 [Compound 1048, N-[(1S,3S)-3-14-{[4-1-(1-27-methanesulfonyl-1H-indazol-4-yl)-6-5-(morpholin-4-yl)-1,3,5-triazin-2-yl]oxy}cyclohexyl]methanesulfonamide] |
| < 5 | CN(C)C(=O)c1ccc(Oc2nc(-c3ccc(N)cc3)nc(N3CCOCC3)n2)cc1 [Compound 1031, 4-14-{[4-1-(4-17-aminophenyl)-6-5-(morpholin-4-yl)-1,3,5-triazin-2-yl]oxy}-N,N-dimethylbenzamide] |
| < 5 | CN(C)C(=O)c1ccc(Oc2nc(-c3cccc4[nH]ccc34)nc(N3CCOCC3)n2)cc1 [Compound 1064, 4-14-{[4-1-(1H-indol-4-yl)-6-5-(morpholin-4-yl)-1,3,5-triazin-2-yl]oxy}-N,N-dimethylbenzamide] |
| < 5 | Cc1cc(Oc2nc(-c3ccc(N)nc3)nc(N3CCOCC3)n2)ccc1C(=O)N(C)C [Compound 1021, 4-20-{[4-1-(6-16-aminopyridin-3-yl)-6-5-(morpholin-4-yl)-1,3,5-triazin-2-yl]oxy}-N,N,2-trimethylbenzamide] |
| < 5 | Nc1ncc(-c2nc(N3CCNCC3)nc(N3CCOCC3)n2)cn1 [Compound 1077, 5-13-[4-5-(morpholin-4-yl)-6-3-(piperazin-1-yl)-1,3,5-triazin-2-yl]pyrimidin-2-amine] |
| < 5 | CS(=O)(=O)N1CCN(C(=O)CCNc2nc(-c3cccc4[nH]ncc34)nc(N3CCOCC3)n2)CC1 [Compound 1191, 3-((4-(1H-indazol-4-yl)-6-morpholino-1,3,5-triazin-2-yl)amino)-1-(4-(methylsulfonyl)piperazin-1-yl)propan-1-one] |
| < 5 | Cc1nc(N)ccc1-c1nc(Oc2ccc(C(=O)N(C)C)cc2)nc(N2CCOCC2)n1 [Compound 1020, 4-14-{[4-1-(6-17-amino-2-19-methylpyridin-3-yl)-6-5-(morpholin-4-yl)-1,3,5-triazin-2-yl]oxy}-N,N-dimethylbenzamide] |
| < 5 | c1ccc(CSc2nc(-c3cccc4[nH]ncc34)nc(N3CCOCC3)n2)cc1 [Compound 1166, 4-(4-(benzylthio)-6-(1H-indazol-4-yl)-1,3,5-triazin-2-yl)morpholine] |
| < 5 | c1cc(-c2nc(N3CCNCC3)nc(N3CCOCC3)n2)c2cn[nH]c2c1 [Compound 1229, 4-17-[4-5-(morpholin-4-yl)-6-3-(piperazin-1-yl)-1,3,5-triazin-2-yl]-1H-indazole] |
| < 5 | CN(C)C(=O)NC1CCN(c2nc(-c3ccc(N)nc3)nc(N3CCOCC3)n2)CC1 [Compound 1069, 1-{1-7-[4-3-(6-16-aminopyridin-3-yl)-6-5-(morpholin-4-yl)-1,3,5-triazin-2-yl]piperidin-4-yl}-3,3-dimethylurea] |
| < 5 | Nc1ncc(-c2nc(N3CCOCC3)nc(N3CCNC(=O)CC3)n2)cn1 [Compound 1051, 1-6-[4-1-(2-22-aminopyrimidin-5-yl)-6-5-(morpholin-4-yl)-1,3,5-triazin-2-yl]-1,4-diazepan-5-one] |
| < 5 | NC(=O)c1cccc(Nc2nc(-c3cnc(N)nc3)nc(N3CCOCC3)n2)c1 [Compound 1046, 3-((4-(2-aminopyrimidin-5-yl)-6-morpholino-1,3,5-triazin-2-yl)amino)benzamide] |
| < 5 | CC(C)(Nc1nc(-c2cccc(O)c2)nc(N2CCOCC2)n1)C(=O)O [Compound 1188, 2-((4-(3-hydroxyphenyl)-6-morpholino-1,3,5-triazin-2-yl)amino)-2-methylpropanoic acid] |
